Test results as given in ChEMBL document CHEMBL4699474, “Dimeric Tetrahydroanthracene Regioisomers and Their Monomeric Precursor Produced by Streptomyces fumigatiscleroticus HDN10255” (J Nat Prod, 2020).
pIC50: −log10 of the molar value. Structures can show the parent of a compound that is named as a salt.

How the values were obtained:
Assay type in all cases: functional, cell-based
HCT-116 = experiment: Cytotoxicity against human HCT-116 cells assessed as reduction in cell viability after 48 hrs by SRB assay; settings: HCT-116, 48 h
HeLa = experiment: Cytotoxicity against human HeLa cells assessed as reduction in cell viability after 48 hrs by SRB assay
K562 = experiment: Cytotoxicity against human K562 cells assessed as reduction in cell viability after 48 hrs by MTT assay; settings: K562, 48 h
HL-60 = experiment: Cytotoxicity against human HL-60 cells assessed as reduction in cell viability after 48 hrs by MTT assay; settings: HL-60, 48 h

**Q.** `CC(=O)[C@H]1c2cc3c(-c4ccc(O)c5c(O)c6c(cc45)[C@H](C(C)=O)[C@@](C)(O)CC6=O)ccc(O)c3c(O)c2C(=O)C[C@]1(C)O` was tested. Which pIC50 (HCT-116) did it give?
**A.** < 5.00

**Q.** What about the pIC50 (HeLa) of the same molecule?
**A.** < 5.00

**Q.** What about the pIC50 (K562) of the same molecule?
**A.** < 5.00

**Q.** What about the pIC50 (HL-60) of the same molecule?
**A.** < 5.00

**Q.** Which results are given for `CC(=O)[C@H]1c2cc3ccc(-c4c5c(c(O)c6c(O)cccc46)C(=O)C[C@](C)(O)[C@H]5C(C)=O)c(O)c3c(O)c2C(=O)C[C@]1(C)O`?
**A.** pIC50 (HCT-116): < 5.00; pIC50 (HeLa): < 5.00; pIC50 (K562): < 5.00; pIC50 (HL-60): < 5.00

**Q.** With `CC(=O)[C@H]1c2c(c(O)c3c(O)cccc3c2-c2c3c(c(O)c4c(O)cccc24)C(=O)C[C@](C)(O)[C@H]3C(C)=O)C(=O)C[C@]1(C)O` as the molecule, how does the pIC50 (HCT-116) read?
**A.** < 5.00

**Q.** What about the pIC50 (HeLa) of the same molecule?
**A.** 5.74

**Q.** What about the pIC50 (K562) of the same molecule?
**A.** 5.29

**Q.** What about the pIC50 (HL-60) of the same molecule?
**A.** < 5.00

**Q.** What does the source list for `CC(=O)[C@H]1c2cc3cccc(O)c3c(O)c2C(=O)C[C@]1(C)O`?
**A.** pIC50 (HCT-116): < 5.00; pIC50 (HeLa): < 5.00; pIC50 (K562): < 5.00; pIC50 (HL-60): < 5.00

**Q.** With `CC(=O)[C@H]1c2cc3c(-c4c5c(c(O)c6c(O)cccc46)C(=O)C[C@](C)(O)[C@H]5C(C)=O)ccc(O)c3c(O)c2C(=O)C[C@]1(C)O` as the molecule, how does the pIC50 (HCT-116) read?
**A.** < 5.00

**Q.** What about the pIC50 (HeLa) of the same molecule?
**A.** 5.29

**Q.** And the pIC50 (K562)?
**A.** 5.00

**Q.** And the pIC50 (HL-60)?
**A.** 5.21

**Q.** `COc1cccc2c1C(=O)c1c(O)c3c(c(O)c1C2=O)C[C@@](O)(C(=O)CO)C[C@@H]3O[C@H]1C[C@H](N)[C@H](O)[C@H](C)O1` [DOXORUBICIN HYDROCHLORIDE] was tested. Which pIC50 (K562) did it give?
**A.** 6.70
